Data published in patent publication US9161965B2, “Treatment for epilepsy” (NoNO Inc., priority 2008, dated 2015).
“Also recorded” adds a separate entry of the source.

Key:
[1] = system: animal models of stroke; conditions: applied before or 1 hour after a stroke; cited from earlier work
[2] = stroke indication; cited from earlier work
[3] = system: male Wistar rats with pilocarpine-induced status epilepticus; assay: Neuron loss (NeuN-positive cell counts) after status epilepticus in the lithium-pilocarpine rat model
Description: Male Wistar rats between 350 to 400 grams were pretreated with lithium chloride (ip; 3 mEq/kg) 17 to 24 hours before systemic injection of the chemoconvulsant pilocarpine. Pilocarpine (ip; 10 mg/kg) was administered every 30 minutes until onset of status epilepticus (SE), which was defined as a loss of consciousness and continuous overt seizure activity. […] Rats generally developed SE shortly thereafter. […] SE was terminated at 1, 3 and 5 hours following onset of SE with diazepam (ip; 4 mg/kg).
Animals were anaesthetized with ketamine and Romptum, and transcardially perfused with paraformaldehyde (PFA; 4% in 0.1M phosphate buffer, pH 7.4) 2 weeks after SE induction. Brains were removed, post-fixed overnight in PFA, and then equilibrated in 30% sucrose in PBS. Brains were then frozen at −35° C. in methylbutane and stored until further use at −70° C. in scintillation vials containing frozen 30% sucrose in PBS to prevent freezer drying. The brains were coronally sectioned at 40 μm using a freezing microtome and stored at −20° C. in 24-well plates containing antifreeze solution (15% glucose, 30% ethylene glycol, 50 mMol phosphate buffer; pH 7.4).
For each animal, neuronal cells were quantified by immunohistochemical staining with NeuN, a neuronal cell specific antibody.

[4] = system: rats with status epilepticus induced by the RLDP procedure; assay: Elevated plus maze (exploratory behaviour) at 8 weeks post-SE; type: in vivo, rat; conditions: administered 3 hours post-SE, 5 minutes on maze
Description: (§1) We investigated possible behavioral effects of 60 min SE induced with the RLDP procedure. Visual-spatial memory was investigated with the Morris water maze (MWM) at 8 weeks post-SE to detect chronic cognitive impairment. The MWM is of particular usefulness with studies involving therapeutic agents, since the severity of neurodegeneration in the anterior CA1 region is strongly correlated with performance (escape latency) (Clasussen et al, 2005). […] All groups contained at least 6 animals.
The elevated plus maze is used to investigate exploratory behaviour. At 8 weeks post-SE, animals were placed on the elevated plus maze for 5 minutes and videotaped. […] Furthermore, SE animals had reduced frequency of lookouts into the open arm and rearing episodes when compared to controls (FIGS. 12 E & F).

[5] = system: male Wistar rats with pilocarpine-induced status epilepticus; assay: Lateral ventricle size after SE, Nissl (cresyl violet) stained brain sections; type: in vivo, rat; conditions: treated at 3 hours post-SE (0.3 and 3 nmol/gm); 14 days post-SE
Description: Following pilocarpine and Tat-NR2B9c administration, and fixing of brain sections, as described above, every 6th section was used for Niss1 staining with cresyl violet. Sections were mounted and allowed to air dry on gelatin coated slides. The sections were rehydrated in an alcohol series at 100%, 95%, 70%, and 50% each for 5 minutes. The sections are then placed in water for 1 minute, followed by the Cresyl Violet Stain for 20 to 30 minutes. Sections are rinsed (30 seconds×2) in water, and dehydrated in an alcohol series at 50% for 5 minutes (or less), 70% for 5 minutes (or less), 95% for 5 minutes (or less), 100% for 5 minutes (or less), and 100% for 5 minutes (or less). Differentiation occurs maximally at the 50% and 70% alcohol gradients. Sections were cleared in xylene for 5 minutes and coverslipped with Permount, and viewed, e.g., under 40× magnification.

[6] = system: rats with status epilepticus induced by the RLDP procedure; assay: Morris water maze (visual-spatial memory) at 8 weeks post-SE; type: in vivo, rat; conditions: administered 3 hours post-SE
Description: as §1
In our study animals were trained on the MWM task for 14 consecutive days, with 6 trials completed daily. […] No SE animals, however, learned the task within 6 consecutive days, with no further improvement in escape latency thereafter.

[7] = target: N-type calcium channels (Homo sapiens, UniProt Q00975); conditions: cited from earlier work
Sequence of N-type calcium channels (Q00975 whole entry): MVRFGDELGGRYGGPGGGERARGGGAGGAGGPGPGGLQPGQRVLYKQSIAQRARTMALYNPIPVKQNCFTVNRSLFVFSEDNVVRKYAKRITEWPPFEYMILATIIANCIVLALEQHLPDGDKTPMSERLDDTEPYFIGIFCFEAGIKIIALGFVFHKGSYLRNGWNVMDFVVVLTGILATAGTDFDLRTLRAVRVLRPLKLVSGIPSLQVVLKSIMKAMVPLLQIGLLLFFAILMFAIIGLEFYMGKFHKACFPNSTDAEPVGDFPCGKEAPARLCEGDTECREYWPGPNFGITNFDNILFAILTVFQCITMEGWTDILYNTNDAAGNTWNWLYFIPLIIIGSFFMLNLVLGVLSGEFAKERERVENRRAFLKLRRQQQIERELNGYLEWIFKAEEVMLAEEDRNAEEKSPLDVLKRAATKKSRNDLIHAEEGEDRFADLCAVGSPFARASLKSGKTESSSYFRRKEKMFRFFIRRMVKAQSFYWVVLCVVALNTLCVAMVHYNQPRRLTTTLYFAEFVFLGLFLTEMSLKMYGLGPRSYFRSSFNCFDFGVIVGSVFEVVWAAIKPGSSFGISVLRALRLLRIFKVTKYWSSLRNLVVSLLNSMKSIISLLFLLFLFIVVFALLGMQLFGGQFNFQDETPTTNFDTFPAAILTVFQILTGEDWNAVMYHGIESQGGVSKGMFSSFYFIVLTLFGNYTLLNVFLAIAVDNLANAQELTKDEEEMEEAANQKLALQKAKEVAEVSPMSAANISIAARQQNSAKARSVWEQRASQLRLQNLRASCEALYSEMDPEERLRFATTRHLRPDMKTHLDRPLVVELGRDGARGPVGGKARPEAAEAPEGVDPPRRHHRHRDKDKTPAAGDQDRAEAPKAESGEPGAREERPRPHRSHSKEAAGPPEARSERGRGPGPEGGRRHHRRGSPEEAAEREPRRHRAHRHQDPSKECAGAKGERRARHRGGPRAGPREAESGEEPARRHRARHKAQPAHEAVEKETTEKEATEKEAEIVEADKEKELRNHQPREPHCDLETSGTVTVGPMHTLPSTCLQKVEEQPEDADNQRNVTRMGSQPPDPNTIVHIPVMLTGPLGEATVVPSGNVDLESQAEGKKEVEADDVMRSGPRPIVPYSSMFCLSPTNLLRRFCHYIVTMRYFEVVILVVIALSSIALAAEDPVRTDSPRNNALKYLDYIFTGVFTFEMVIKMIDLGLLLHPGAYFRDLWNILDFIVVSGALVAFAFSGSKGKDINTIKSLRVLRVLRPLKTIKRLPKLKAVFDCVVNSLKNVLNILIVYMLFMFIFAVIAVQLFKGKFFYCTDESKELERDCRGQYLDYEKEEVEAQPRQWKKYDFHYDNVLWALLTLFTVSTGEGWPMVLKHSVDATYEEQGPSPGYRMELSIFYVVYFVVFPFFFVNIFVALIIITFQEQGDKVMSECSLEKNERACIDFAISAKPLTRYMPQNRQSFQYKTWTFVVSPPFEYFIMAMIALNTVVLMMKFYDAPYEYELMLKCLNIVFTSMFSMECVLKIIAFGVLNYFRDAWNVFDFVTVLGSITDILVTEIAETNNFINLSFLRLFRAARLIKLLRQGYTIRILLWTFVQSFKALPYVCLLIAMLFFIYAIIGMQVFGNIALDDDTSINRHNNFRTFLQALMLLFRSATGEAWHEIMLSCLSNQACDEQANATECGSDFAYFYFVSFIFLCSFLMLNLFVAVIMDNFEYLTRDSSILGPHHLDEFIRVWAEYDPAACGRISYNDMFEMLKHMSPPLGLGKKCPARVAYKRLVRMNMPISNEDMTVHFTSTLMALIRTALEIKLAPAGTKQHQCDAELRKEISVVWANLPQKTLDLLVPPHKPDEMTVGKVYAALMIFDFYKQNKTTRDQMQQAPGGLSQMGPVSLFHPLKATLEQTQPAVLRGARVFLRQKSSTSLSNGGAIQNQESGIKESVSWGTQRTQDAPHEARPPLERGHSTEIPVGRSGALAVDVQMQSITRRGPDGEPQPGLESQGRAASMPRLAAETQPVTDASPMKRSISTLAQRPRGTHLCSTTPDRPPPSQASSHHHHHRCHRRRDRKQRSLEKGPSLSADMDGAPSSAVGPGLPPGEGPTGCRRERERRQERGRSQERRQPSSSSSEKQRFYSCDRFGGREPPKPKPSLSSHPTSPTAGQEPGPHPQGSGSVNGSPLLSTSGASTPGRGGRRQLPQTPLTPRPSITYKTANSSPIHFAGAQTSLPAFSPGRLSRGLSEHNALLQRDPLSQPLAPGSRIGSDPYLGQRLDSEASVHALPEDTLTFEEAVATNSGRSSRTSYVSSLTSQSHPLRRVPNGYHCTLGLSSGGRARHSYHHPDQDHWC

Sequence | Neuroprotection in animal models of stroke [1] | Adverse events / side effects in phase I clinical trials [2] | Neuroprotection / neuron loss (NeuN-positive cells), peptide administered during status epilepticus ([3]; administered 10 minutes following initiation of SE, 0.3, 3 and 9 nmol/gm, 7 days after SE) | NeuN-immunostaining of coronal sections of the dorsal hippocampus (histochemical visualization) ([3]; administered 3 hours following the insult, 2.5x and 40x magnification) | Neuroprotection / neuron loss (NeuN-positive cells), anterior (dorsal) CA1 region of the hippocampus ([3]; administered via femoral vein 3 hours after termination of SE, 0.3 or 3 nmol/gm, 14 days recovery) | Number of surviving neuronal cells near the subicular border of the CA1 region ([3]; compared to saline-treated animals) | Neuroprotection in the CA4 region ([3]; rat, in vivo) | Effects of SE on exploratory behaviour / cognitive impairment, elevated plus maze [4] | Size of lateral ventricles following SE [5] | Escape latency performance, Morris water maze [6] | Binding to and inhibition of N-type calcium channels [7]
YGRKKRRQRRRKLSSIESDV (synthetic chimeric PDZ-binding ligand (PL) motif active peptide linked to HIV TAT internalization peptide, Tat-NR2B9c-(SDV)) [HIV Tat internalization peptide linked to NR2B C-terminal 9-mer; PSD-95 antagonist] | highly neuroprotective | without serious adverse events | did not decrease neuron loss; also recorded: comparable to neuron loss in untreated rats; also recorded: not during | increased NeuN-immunostaining; also recorded: This effect was reversed | rescued neuron loss in a dose-dependent manner; also recorded: especially protective; also recorded: conferred neuroprotection; also recorded: neuroprotective in the anterior CA1 region of the hippocampus; also recorded: neuroprotective when administered after; also recorded: dose-dependent neuroprotection | increased the number of surviving neuronal cells | confers neuroprotection | decreased these effects of SE on exploratory behavior; also recorded: reduces the cognitive impairment caused by status epilepticus | reduced them to the size found in rats who had not been given pilocarpine; also recorded: dramatic reduction of lateral ventricle size; also recorded: noticeably smaller lateral ventricles | improves escape latency performance, especially during the initial 5 days of acquisition learning | 
YGRKKRRQRRR [standard tat peptide] |  |  |  |  |  |  |  |  |  |  | binds to and inhibits N-type calcium channels
